Structures can show the parent of a compound that is named as a salt.
Assays:
Format in all cases: biochemical
Conditions in all cases: read-out: IC50 ^a / UV-4B
[1] = target: T1, Mouse ER α-glucosidase I (Mus musculus, UniProt Q80UM7); test: enzyme inhibition assay, purified enzyme
T1 construct: gene Mogs
T1 sequence (Q80UM7 1-834): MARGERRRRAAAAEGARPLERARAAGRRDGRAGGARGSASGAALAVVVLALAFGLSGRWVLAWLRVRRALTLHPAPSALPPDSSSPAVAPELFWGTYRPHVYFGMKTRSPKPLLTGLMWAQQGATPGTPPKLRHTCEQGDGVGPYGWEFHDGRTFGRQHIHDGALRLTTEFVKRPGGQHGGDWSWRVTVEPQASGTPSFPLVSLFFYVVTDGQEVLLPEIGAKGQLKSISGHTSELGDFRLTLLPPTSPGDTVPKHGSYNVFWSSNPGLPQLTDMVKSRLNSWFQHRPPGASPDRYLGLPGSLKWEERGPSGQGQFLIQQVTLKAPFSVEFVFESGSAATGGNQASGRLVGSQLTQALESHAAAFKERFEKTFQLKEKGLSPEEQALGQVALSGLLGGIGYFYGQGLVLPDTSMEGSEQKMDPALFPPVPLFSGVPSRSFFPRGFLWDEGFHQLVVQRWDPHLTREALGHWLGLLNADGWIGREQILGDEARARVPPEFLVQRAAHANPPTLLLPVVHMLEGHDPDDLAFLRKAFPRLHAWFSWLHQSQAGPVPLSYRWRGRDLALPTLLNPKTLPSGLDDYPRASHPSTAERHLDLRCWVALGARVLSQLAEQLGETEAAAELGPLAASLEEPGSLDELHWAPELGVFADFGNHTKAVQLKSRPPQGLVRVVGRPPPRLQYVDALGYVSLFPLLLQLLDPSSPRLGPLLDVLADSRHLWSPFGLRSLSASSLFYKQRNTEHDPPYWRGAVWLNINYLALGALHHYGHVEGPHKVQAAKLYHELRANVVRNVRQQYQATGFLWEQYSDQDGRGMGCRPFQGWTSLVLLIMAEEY
Description: enzyme inhibition assay, purified enzyme on Mouse ER α-glucosidase I

[2] = target: T2, Human lysosome (α-galactosidase) (Homo sapiens, UniProt P06280); test: enzyme inhibition assay
T2 construct: gene GLA
T2 sequence (P06280 32-429): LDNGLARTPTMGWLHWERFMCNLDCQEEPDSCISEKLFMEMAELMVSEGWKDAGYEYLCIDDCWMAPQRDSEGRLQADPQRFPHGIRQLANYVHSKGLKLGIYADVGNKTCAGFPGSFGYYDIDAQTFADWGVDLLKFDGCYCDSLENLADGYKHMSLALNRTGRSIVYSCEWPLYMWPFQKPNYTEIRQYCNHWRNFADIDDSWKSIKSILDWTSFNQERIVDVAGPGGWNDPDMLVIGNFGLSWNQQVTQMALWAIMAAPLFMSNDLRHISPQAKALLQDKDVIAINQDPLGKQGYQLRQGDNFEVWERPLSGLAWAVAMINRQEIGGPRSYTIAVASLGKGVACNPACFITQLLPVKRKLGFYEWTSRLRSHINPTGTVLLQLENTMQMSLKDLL
Description: enzyme inhibition assay on Human lysosome (α-galactosidase)

[3] = target: T3, ceramide glucosyltransferase (HL60 glucosyltransferase) (Homo sapiens, UniProt Q16739); test: enzyme inhibition assay, enzyme isolated from HL60 cells
T3 construct: gene UGCG; native enzyme isolated from human promyelocytic HL60 cells
T3 sequence (Q16739 1-394): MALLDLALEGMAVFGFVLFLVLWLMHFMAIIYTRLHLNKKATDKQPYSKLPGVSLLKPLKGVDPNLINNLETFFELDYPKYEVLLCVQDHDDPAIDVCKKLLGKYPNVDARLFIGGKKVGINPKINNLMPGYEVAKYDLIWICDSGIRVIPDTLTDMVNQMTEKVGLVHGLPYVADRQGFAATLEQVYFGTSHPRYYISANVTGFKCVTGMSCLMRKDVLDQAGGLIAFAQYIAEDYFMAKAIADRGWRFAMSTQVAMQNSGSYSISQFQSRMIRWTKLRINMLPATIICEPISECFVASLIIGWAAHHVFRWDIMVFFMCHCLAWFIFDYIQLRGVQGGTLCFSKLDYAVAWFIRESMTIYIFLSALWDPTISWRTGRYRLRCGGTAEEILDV
Description: enzyme inhibition assay, enzyme isolated from HL60 cells on ceramide glucosyltransferase (HL60 glucosyltransferase)

IC50 [1]: 0.16 µM
IC50 [2]: > 1000 µM
IC50 [3]: 0.39 µM
SMILES: COCCCCCCCCCN1C[C@H](O)[C@@H](O)[C@H](O)[C@H]1CO [UV-4B, N-(9′-methoxynonyl)-1-deoxynojirimycin hydrochloride]
